Assay results taken from PMC10254444, “Targeting Myeloperoxidase Activity and Neutrophil ROS Production to Modulate Redox Process: Effect of Ellagic Acid and Analogues” (Molecules, 2023).

Assays:
[1] = DPPH radical scavenging assay
Experimental: The DPPH assay was performed according to the method developed by Brand-Williams et al., though slightly modified. A solution of 1 mM DPPH in absolute methanol was stirred for 40 min. Absorbance of the solution was adjusted to 0.650 ± 0.020 at 517 nm using fresh absolute methanol. For replicates, the DPPH assay was performed using a microplate reader. For this, 2 µL of EA taken as a standard or sample (EA analogue) were mixed with 198 µL of DPPH solution and incubated for 30 min in the dark covered with aluminum foil. When reacting with an antioxidant, the DPPH• radical is converted into DPPH, and its color changes from purple to yellow. The antioxidant effect may be easily evaluated by observing the decrease in visible absorption. The absorbance decrease was monitored at 510 nm for 30 min with a Multiskan Ascent 96-plate reader (ThermoLabsystem, Finland). A control consisted of 2 µL of DMSO in 198 µL of DPPH solution. A similar formula (Equation (1)) was applied to determine the DPPH radical-scavenging activity.

[2] = molecular target: T1, Horseradish peroxidase (HRP) (Armoracia rusticana, UniProt P00433); assay: HRP-catalyzed oxidation of L012 (chemiluminescence); assay type: biochemical
T1 construct: purchased Merck (Darmstadt, Germany)
T1 sequence (P00433 31-338 limits assumed): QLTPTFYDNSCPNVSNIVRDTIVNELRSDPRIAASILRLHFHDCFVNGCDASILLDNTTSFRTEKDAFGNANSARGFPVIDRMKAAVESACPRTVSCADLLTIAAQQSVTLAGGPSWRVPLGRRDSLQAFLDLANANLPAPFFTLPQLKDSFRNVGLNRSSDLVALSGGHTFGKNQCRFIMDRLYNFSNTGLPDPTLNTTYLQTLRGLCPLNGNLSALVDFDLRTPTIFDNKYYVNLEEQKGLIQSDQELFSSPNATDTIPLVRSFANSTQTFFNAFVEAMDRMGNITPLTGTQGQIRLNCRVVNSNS
Experimental: […] (HRP) reacts with hydrogen peroxide (H2O2), yielding “compound I (HRP^+.-Fe (IV=O))”, which is a reactive intermediate of HRP that is able to oxidize any potential reducing agent. Briefly, 2 μL of compound or reference molecule (ellagic acid) were incubated in phosphate buffer at pH 7.4 (153 μL, 50 mM) containing 5 μL HRP (100 µg/L), 20 μL L0-12 (10^−3 M), and 20 μL H2O2 (1 mM), and the chemiluminescence was immediately measured using a Fluoroskan Ascent 96-plate reader (ThermoLabsystem, Finland) at 37 °C for 30 min [32, 34]. The analysis was conducted in a 96-well microtiter plate. All the assays were performed in triplicate and repeated at least twice (N = 2; n = 6). The relative activity in terms of inhibition percentage of the tested compound or reference (ellagic acid) was compared to a control in the presence of DMSO taken as a solvent. The inhibition percentage was calculated using a similar formula (Equation (1)) as described above.

[3] = molecular target: T2, human myeloperoxidase (MPO) (Homo sapiens, UniProt P05164); assay: MPO peroxidase activity, classical assay (Amplex Red); assay type: biochemical
T2 construct: purchased Calbiochem Millipore
T2 sequence (P05164 49-745): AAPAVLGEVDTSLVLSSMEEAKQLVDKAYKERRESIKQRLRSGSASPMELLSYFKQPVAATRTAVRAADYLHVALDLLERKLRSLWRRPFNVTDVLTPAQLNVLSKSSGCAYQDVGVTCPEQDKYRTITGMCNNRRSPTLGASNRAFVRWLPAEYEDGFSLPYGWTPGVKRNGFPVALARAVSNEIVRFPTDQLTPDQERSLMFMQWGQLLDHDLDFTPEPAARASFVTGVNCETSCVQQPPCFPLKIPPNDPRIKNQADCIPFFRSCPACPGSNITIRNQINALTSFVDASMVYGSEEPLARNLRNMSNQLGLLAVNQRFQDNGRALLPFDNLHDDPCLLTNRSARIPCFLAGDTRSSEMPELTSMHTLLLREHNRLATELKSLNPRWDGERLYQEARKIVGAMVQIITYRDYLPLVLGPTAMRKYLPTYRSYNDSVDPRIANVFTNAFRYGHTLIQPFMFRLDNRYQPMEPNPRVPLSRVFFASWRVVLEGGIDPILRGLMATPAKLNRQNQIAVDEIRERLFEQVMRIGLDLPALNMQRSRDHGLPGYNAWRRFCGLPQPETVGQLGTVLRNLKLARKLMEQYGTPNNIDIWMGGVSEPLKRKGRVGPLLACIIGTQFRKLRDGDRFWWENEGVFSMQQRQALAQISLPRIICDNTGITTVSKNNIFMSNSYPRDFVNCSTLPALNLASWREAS
Experimental: Measurement of the peroxidase activity of MPO was performed by a classical enzymatic assay and by SIEFED assay as described by Nyssen et al.. The MPO solution was prepared with purified human MPO in dilution buffer (PBS 20 mM at pH 7.4 with 5 g/L BSA and 0.1% Tween-20). The solutions of EA or analogue, at final concentrations ranging from 10^−8 M to 10^−5 M, were incubated for 10 min with human MPO at a final concentration of 5 mU/mL before further use. The revelation of MPO activity was performed by monitoring the enzyme-catalyzed oxidation of Amplex Red in the presence of H2O2 (10 μM) and nitrite (4.5 mM) in phosphate buffer at pH 7.4.
After incubation, mixtures containing 100 μL of EA/analogue or vehicle (DMSO) and MPO were loaded into wells of microtiter plates (transparent), and the peroxidase activity was measured by adding 10 μL sodium nitrite solution (4.5 mM, final concentration) and 100 μL of the reactional solution containing 10 µM H2O2 and 40 µM Amplex® Red (AR) in phosphate buffer (50 mM) at pH 7.4. The oxidation of AR into the fluorescent resorufin adduct (λexcitation = 544 nm; λemission = 590 nm) was monitored for 30 min at 37 °C with a fluorescent plate reader (Fluoroskan Ascent, Fisher Scientific, Hampton, NH, USA). To eliminate the possibility of the artifact reactions that might arise from MPO activity or its natural substrate (H2O2), the direct reaction of ellagic acid or an analogue with H2O2 was performed in phosphate buffer (PBS) without the addition of human MPO.

Row | IC50 [1] [µM] | IC50 [2] [µM] | SMILES | DPPH inhibition percentage ([1]; at the highest concentration) [%] | HRP inhibiting activity (in words) [2] | MPO inhibition, classical assay (in words) [3]
1 | – | – | CN(C)C(=O)Oc1cc2c(=O)oc3c(OC(=O)N(C)C)c(OC(=O)N(C)C)cc4c(=O)oc(c1OC(=O)N(C)C)c2c34 [compound 6, Sevellagic acid] | −3 | lack of effect | lack of effect
2 | 5.22 ± 0.05 | 3.55 ± 0.37 | CCOC1Oc2cc(C(=O)OC)cc(O)c2O1 (centres unmarked) [compound 11, methyl 2-ethoxy-7-hydroxybenzo[d][1,3]dioxole-5-carboxylate] | – | – | –
